Experimental data published in patent publication US20240100072A1, “SUBCUTANEOUSLY ADMINISTERED TREATMENTS FOR ADVANCED PARKINSON'S DISEASE” (AbbVie Inc., priority 2021, published 2024).

Key:
plasma proteins = assay: Distribution: erythrocyte/plasma partitioning, plasma protein binding, blood-brain barrier; assay type: in vitro ADME
Text: Levodopa is transported into the brain by the carrier mechanism for large neutral amino acids.

[1] = Metabolism and elimination; details: in vivo; for half-life: human
Text: Levodopa is mainly eliminated via metabolism by the aromatic amino acid decarboxylase (AAAD) and the catechol-O-methyl-transferase (COMT) enzymes. Other routes of metabolism are transamination and oxidation. The decarboxylation of levodopa to dopamine by AAAD is the major enzymatic pathway when no enzyme inhibitor is co-administered. O-methylation of levodopa by COMT forms 3-O-methyldopa. […] These 2 metabolites are primarily eliminated in the urine unchanged or as glucuronide conjugates.

| SMILES | blood-brain barrier passage (plasma proteins) | half-life [1] [h] | unchanged drug as share of the total urinary excretion [1] [%] | binding to plasma proteins (plasma proteins) [%] | partitioning ratio between erythrocytes and plasma (plasma proteins) |
| --- | --- | --- | --- | --- | --- |
| C[C@@](Cc1ccc(O)c(O)c1)(NN)C(=O)O [carbidopa] | does not cross the blood-brain barrier | ~2 | 30 |  |  |
| N[C@@H](Cc1ccc(O)c(O)c1)C(=O)O [levodopa, L-3,4-dihydroxyphenylalanine] |  | ~1.5 |  | < 10 | approximately 1 |
